Laboratory results: ChEMBL document CHEMBL1201862, “PubChem BioAssay data set” (2004)
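Dose response: 5 concentrations. Exposure: 48 h. Format: 96-well plates. Endpoint: linear interpolation; highest concentration if not reached. GI50 is the concentration that inhibits growth by half.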 Active and inactive are the calls of the source. Cut-off read from the data, not from the text of the source: active = GI50 up to about 1.1 µM and inactive = higher.

Assays:
Assay in all cases: inhibition of tumour cell growth, NCI panel, 48 h
A549 = tested on: A549
HT-29 = tested on: HT-29
SF-268 = tested on: SF-268
NCI-H460 = tested on: NCI-H460
SNB-19 = tested on: SNB-19
HCT-15 = tested on: HCT-15
M14 = tested on: M14
HOP-92 = tested on: HOP-92
MDA-MB-435 = tested on: MDA-MB-435
SF-295 = tested on: SF-295
SR = tested on: SR
MDA-N = tested on: MDA-N
SNB-75 = tested on: SNB-75
UACC-62 = tested on: UACC-62
SK-MEL-28 = tested on: SK-MEL-28
U-251 = tested on: U-251
CAKI-1 = tested on: CAKI-1
KM12 = tested on: KM12
RPMI-8226 = tested on: RPMI-8226
Malme-3M = tested on: Malme-3M
786-0 = tested on: 786-0
MOLT-4 = tested on: MOLT-4
HOP-62 = tested on: HOP-62
HCT-116 = tested on: HCT-116
Hs-578T = tested on: Hs-578T
NCI-H522 = tested on: NCI-H522
TK-10 = tested on: TK-10
SN12C = tested on: SN12C
SK-MEL-5 = tested on: SK-MEL-5
EKVX = tested on: EKVX
LOX IMVI = tested on: LOX IMVI
HL-60 = tested on: HL-60
SF-539 = tested on: SF-539
UACC-257 = tested on: UACC-257
UO-31 = tested on: UO-31
RXF 393 = tested on: RXF 393
OVCAR-4 = tested on: OVCAR-4
A498 = tested on: A498
ACHN = tested on: ACHN
SK-OV-3 = tested on: SK-OV-3
OVCAR-8 = tested on: OVCAR-8
PC-3 = tested on: PC-3
OVCAR-5 = tested on: OVCAR-5
OVCAR-3 = tested on: OVCAR-3
DU-145 = tested on: DU-145
CCRF-CEM = tested on: CCRF-CEM
BT-549 = tested on: BT-549
HCC 2998 = tested on: HCC 2998
COLO 205 = tested on: COLO 205
IGROV-1 = tested on: IGROV-1
NCI-H23 = tested on: NCI-H23
MCF7 = tested on: MCF7
SW-620 = tested on: SW-620

Structure (SMILES): CN(C)CCNC(=O)c1ccc2nc3c(nc2c1)C(=O)c1ccccc1-3
- GI50 (A549): > 100 µM (inactive)
- GI50 (HT-29): 26.4 µM (inactive)
- GI50 (SF-268): 33.5 µM (inactive)
- GI50 (NCI-H460): 18.5 µM (inactive)
- GI50 (SNB-19): 77.3 µM (inactive)
- GI50 (HCT-15): 31.4 µM
- GI50 (M14): > 100 µM (inactive)
- GI50 (HOP-92): 57.4 µM (inactive)
- GI50 (MDA-MB-435): 26 µM (inactive)
- GI50 (SF-295): 65.6 µM (inactive)
- GI50 (SR): 18.1 µM (inactive)
- GI50 (MDA-N): 18.2 µM (inactive)
- GI50 (SNB-75): 30.5 µM (inactive)
- GI50 (UACC-62): 46.5 µM (inactive)
- GI50 (SK-MEL-28): > 100 µM (inactive)
- GI50 (U-251): 24.2 µM (inactive)
- GI50 (CAKI-1): > 100 µM (inactive)
- GI50 (KM12): 81.8 µM (inactive)
- GI50 (RPMI-8226): 26.1 µM (inactive)
- GI50 (Malme-3M): 25.2 µM (inactive)
- GI50 (786-0): 31.8 µM (inactive)
- GI50 (MOLT-4): 12.9 µM (inactive)
- GI50 (HOP-62): 29 µM (inactive)
- GI50 (HCT-116): 45.9 µM (inactive)
- GI50 (Hs-578T): 52.2 µM (inactive)
- GI50 (NCI-H522): 30.9 µM (inactive)
- GI50 (TK-10): > 100 µM (inactive)
- GI50 (SN12C): 68.5 µM (inactive)
- GI50 (SK-MEL-5): 17.9 µM (inactive)
- GI50 (EKVX): > 100 µM (inactive)
- GI50 (LOX IMVI): 29.9 µM (inactive)
- GI50 (HL-60): 19.1 µM (inactive)
- GI50 (SF-539): 60.8 µM (inactive)
- GI50 (UACC-257): 76.6 µM (inactive)
- GI50 (UO-31): 40.6 µM (inactive)
- GI50 (RXF 393): 85.5 µM (inactive)
- GI50 (OVCAR-4): 32.8 µM (inactive)
- GI50 (A498): > 100 µM (inactive)
- GI50 (ACHN): 47.1 µM (inactive)
- GI50 (SK-OV-3): > 100 µM (inactive)
- GI50 (OVCAR-8): 36.5 µM (inactive)
- GI50 (PC-3): 45 µM (inactive)
- GI50 (OVCAR-5): > 100 µM (inactive)
- GI50 (OVCAR-3): 55 µM (inactive)
- GI50 (DU-145): > 100 µM (inactive)
- GI50 (CCRF-CEM): 9.75 µM (inactive)
- GI50 (BT-549): 21.7 µM (inactive)
- GI50 (HCC 2998): 86.9 µM (inactive)
- GI50 (COLO 205): 34.6 µM (inactive)
- GI50 (IGROV-1): 38.9 µM (inactive)
- GI50 (NCI-H23): 48.5 µM (inactive)
- GI50 (MCF7): 27.9 µM (inactive)
- GI50 (SW-620): 34.2 µM (inactive)
